The test system of data set [1] is neuronal cultures. Briefly: Functional neuronal phenotype in neuronal cultures. The format is cell-based.
Method: Neuronal cultures are treated with various concentrations of sigma compounds for 24 hours and nuclear intensity compared to vehicle is measured.
The nature of data set [2]: Microsomal stability in mouse liver microsomes (MLM). The format is in vitro ADME. To be noted: mouse, microsomes. As to the method: A first pharmacokinetic study was performed in microsomes of mice mouse liver microsomes, MLM) by a commercial contract research organization. The studies were performed according to Obach, R. S et al. (1997) J. Pharmacol. Exp. Ther., 283: 46-58, which is incorporated herein by reference.
For orientation: Microsomes from liver hold many membrane-bound enzymes, among them those of drug oxidation.

The subject of data set [3] is neurons. Conditions: neuronal cultures treated 24 hours; cited from earlier work.
Data set [4] has as its system caspase-3. To be noted: cited from earlier work; for caspase-3 activation by ligand: tumor cells and neurons.
The subject of data set [5] is Abeta oligomer-induced synapse loss in primary hippocampal neurons. Briefly: Abeta 1-42 oligomer synapse loss assay. The format is cell-based, rat. To be noted: Abeta 42 oligomers.
Method: In this assay, Abeta oligomers are brought in contact with mature primary neurons in culture and their binding was determined by immunohistochemistry (anti-Abeta antibody) and quantified by image processing. The amount of Abeta in neuronal dendrites is assessed by counting the number of labeled puncta on the neuritis. […] This labeling is associated with synapses, co-localizing with the post-synaptic scaffold protein PSD-95 (Lacor et al., '04). […] The number of synapses can also be quantified in this assay by immunofluorochemistry.
Primary hippocampal neuronal culture is established as in the membrane trafficking assay above. […] Pretreatment with test compounds for 1 hr and addition of Abeta oligomers or no oligomer (vehicle alone) is followed by incubation for an additional 23 hrs.
The plates are then washed 3× with PBS for 5 min each. The plates are blocked at RT for 1 hr in 5% goat serum and 0.5% Triton X-100 in PBS. Primary antibodies (anti-MAP 2 polyclonal, Millipore # AB5622 and anti-Beta Amyloid 6E10 monoclonal, Covance # SIG-39300, at 1 microgram/ml, and rabbit polyclonal anti-synaptophysin, Anaspec, at 0.2 microgram/ml) were diluted 1:1000 in 5% goat serum with PBS. Primary antibodies are incubated overnight at 4° C. The plates are then washed 3× with PBS for 5 min each. Secondary antibodies (Alex Flor 488 polyclonal, Invitrogen # A11008 and Alexa Flor 647 monoclonal, Invitrogen # A21235) are diluted 1:1000 in 5% goat serum with PBS. Secondary antibodies are incubated at RT for 1 hr. The plates are washed once with PBS. DAPI (4′,6-diamidino-2-phenylindole, Invitrogen) is then applied at 0.03 ug/ul and incubated at RT for 5 min, then washed with PBS.

The text below walks through data of patent publication US10611728B2, “Isoindoline compositions and methods for treating neurodegenerative disease” (priority 2014, dated 2020).

“Also recorded” adds a separate entry of the source.

Consider `CC(C)Oc1cc(CC[C@@H](C)N2Cc3cc4c(cc3C2)OCO4)ccc1O` [compound 25], for which, in data set [1], the neuronal phenotype entry is recorded as “Inactive/IAACon”. Also, the “Mouse liver microsomes, MLM t½” value in data set [2] is given as 4 min. Consider `COc1ccc(C)cc1NC(=O)OC1C[C@H]2CCC[C@@H](C1)N2CCCCCCN` (some centres unmarked) [SV-119], for which the “nuclear morphology / nuclear intensity in neurons” value in data set [3] was “cause significant abnormal nuclear morphology in neurons”. Also, the “caspase-3 activation by ligand” value in data set [4] is “activate caspase-3 in tumor cells and neurons”. Turning to `O=C(CCCN1CCC(O)(c2ccc(Cl)cc2)CC1)c1ccc(F)cc1` [haloperidol], the “elimination of Abeta oligomer-induced synapse loss” value in data set [5] is listed as “completely eliminated synapse loss”. On to `Fc1ccc(-n2cc(CCCCN3CCC4(CC3)OCc3ccccc34)c3ccccc32)cc1` [Siramesine], for which, in data set [3], the “nuclear morphology / nuclear intensity in neurons” value is listed as “cause significant abnormal nuclear morphology in neurons”. Besides, the “caspase-3 activation by ligand” value in data set [4] was “activate caspase-3 in tumor cells and neurons; also recorded: induces caspase-3 activity”. Take `COc1cc2c(cc1OC)CN(CCCCNC(=O)c1cc(C)ccc1OC)CC2` [RHM-1, N-[4-(3,4-dihydro-6,7-dimethoxyisoquinolin-2(1H)-yl)butyl]-2-methoxy-5-methylbenzamide]: the “nuclear morphology / nuclear intensity in neurons” value in data set [3] was “do not decrease nuclear intensity”. Further, the “caspase-3 activation by ligand” value in data set [4] is “do not induce caspase-3 activity”. In addition, in data set [4] (tumor cells), the “inhibition of caspase-3 activation in tumor cells” value is “inhibits the activation in tumor cells”. Consider `C[C@H](CCc1ccc(OC(=O)N(C)C)c(OC(F)(F)F)c1)N1Cc2cccc(F)c2C1` [compound 41], for which the neuronal phenotype entry in data set [1] is listed as “Inactive/IAACon”. Further, the “Mouse liver microsomes, MLM t½” value in data set [2] was 9 min.

For `CC(C)Oc1cc(CCC(C)(C)N2Cc3cc4c(cc3C2)OCO4)ccc1O` [compound 29], the neuronal phenotype result in data set [1] is given as “Inactive/IAACon”. The “Mouse liver microsomes, MLM t½” value in data set [2] came out at 6 min.

Regarding `CCCN(CCC)CCc1ccc(OC)c(OCCc2ccccc2)c1` [NE-100], the “elimination of Abeta oligomer-induced synapse loss” value in data set [5] was “completely eliminated synapse loss”.

`CCC(Oc1ccc(Cl)cc1)C(=O)OC1CC2CCC(C1)N2C` (centres unmarked) [SM-21]: in data set [5], the “elimination of Abeta oligomer-induced synapse loss” value was “only weakly active in eliminating synapse loss” and the “recovery of synapse loss” value was 20%.
